Test results: paper PMC7844538, “Peptide-Conjugated Phosphorodiamidate Morpholino Oligomers Retain Activity against Multidrug-Resistant Pseudomonas aeruginosa In Vitro and In Vivo” (mBio, 2021)

Columns and labels:
[1] = system: P. aeruginosa strain MB447; experiment: Acute pneumonia mouse model with XDR strain, survival; format: in vivo, Pseudomonas aeruginosa in BALB/c mice; conditions: for survival at day 4: 15 mg/kg intratracheal at 15 min, then intranasal at 24 h (legend: 6 h); for Median survival: 15 mg/kg, two treatments, Kaplan-Meier
Protocol: To test whether PPMOs retained in vivo activity in an XDR strain, we utilized the AcpP-RXR(5′) PPMO in the acute pneumonia model using XDR P. aeruginosa strain MB447, a carbapenem-resistant bloodstream isolate. […] Mice were infected intratracheally followed by intratracheal treatment 15 min postinfection with either 15 mg/kg of AcpP-RXR(5′), scrambled control PPMO (Scr), PBS, 15 mg/kg of meropenem, or 15 mg/kg of tobramycin, and the bacterial burden was determined at 24 h postinfection.
Mice were infected intratracheally with P. aeruginosa strain MB447 (∼10^7 CFU/mouse). (A) Mice were treated intratracheally 15 min postinfection with 15 mg/kg/24 h of AcpP-RXR(5′) and the corresponding scrambled PPMO, tobramycin, and meropenem and were euthanized at 24 h, and lung tissues were processed as previously described. All samples were plated for viable CFU on PIA. Each symbol represents the value for a single mouse. Error bars represent SEM. Statistical differences were determined using one-way ANOVA and indicated as follows: ****, P < 0.0001; **, P < 0.01; *, P < 0.05. (B) Mice were treated intratracheally 15 min postinfection and intranasally at 6 h postinfection (a total of two treatments) with the same compounds and doses. Mice were monitored for 4 days postinfection.
P. aeruginosa strains PA103, PA103 P1-lux, and MB447 were grown on Pseudomonas isolation agar (PIA) for 16 to 18 h at 37°C and suspended in PBS to an optical density at 600 nm (OD600) of 0.5, corresponding to ∼10^9 CFU/ml. Inocula were adjusted spectrophotometrically to obtain the desired sublethal challenge dose in a volume of 25 μl. Six- to 8-week-old female BALB/c mice (Jackson Laboratories, Bar Harbor, ME) were anesthetized by intraperitoneal injection of 0.2 ml of a mixture of ketamine (6.7 mg/ml) and xylazine (1.3 mg/ml). Mice were infected by noninvasive intratracheal instillation of dilutions of P. aeruginosa strain as indicated ([34]).

P. aeruginosa MB447 = experiment: MIC against XDR strain MB447; format: cell-based, Pseudomonas aeruginosa; conditions: medium not stated
Protocol: MIC assays of PPMOs were determined according to the Clinical and Laboratory Standards Institute (CLSI) broth microdilution method ([29]), using the method previously described ([14]). The assays were performed in 96-well tissue culture plates (Thermo Fisher Scientific, Waltham, MA). All reagents were analytical grade and were obtained from Sigma-Aldrich (St. Louis, MO), Acros Organics (Geel, Belgium), UT Southwestern Campus Pharmacy, or Thermo Fisher Scientific (Waltham, MA). Morpholinopropanesulfonic acid (MOPS) minimal medium was prepared as previously described ([30], [31]).

[2] = system: P. aeruginosa PAO1 biofilm; experiment: Established biofilm on MBEC pegs, crystal violet (total biomass); format: cell-based, Pseudomonas aeruginosa; conditions: PAO1, 24 h biofilm, dosed at 24, 32, 40 h, read at 48 h; tobramycin 0.625 µg/ml, piperacillin-tazobactam 0.25 µg/ml, PPMO 0.25 µM (legend 2.5 μM)
Protocol: We previously reported that treatment with PPMO alone was effective in both preventing and decreasing established P. aeruginosa biofilm in vitro ([14]). Here, we aimed to determine whether combining a PPMO with a traditional antibiotic (that also had minimal biofilm-inhibitory activity on its own) could enhance biofilm eradication compared to either drug alone. Biofilms were established in minimal biofilm eradication concentration (MBEC) plates by growing P. aeruginosa PAO1 at 37°C. At 24 h postinoculation, lids with established biofilm were moved to new 96-well plates containing fresh media with either antibiotic only (0.625 µg/ml tobramycin or 0.25 µg/ml piperacillin-tazobactam), PPMO only [0.25 µM either AcpP-RXR(3′) or RpsJ-RXR(3′)], or PPMO plus antibiotic as indicated. We hypothesized that the combination of antibiotics and PPMOs targeting a similar cellular process, such as bacterial cell wall (AcpP and piperacillin-tazobactam) or protein synthesis (RpsJ and tobramycin) would enhance biofilm eradication.
FIG 1 PPMOs in combination with traditional antibiotics display enhanced activity and reduce established P. aeruginosa strain PAO1 biofilm. […] Statistical differences were determined by one-way ANOVA and indicated as follows: ***, P < 0.0001; **, P < 0.001; *, P < 0.05; n.s., not significant. […]

[3] = system: P. aeruginosa PAO1 biofilm; experiment: Established biofilm on MBEC pegs, viability (resazurin, CFU); format: cell-based, Pseudomonas aeruginosa; conditions: PAO1, 24 h biofilm, dosed at 24, 32, 40 h, read at 48 h; tobramycin 0.625 µg/ml, PPMO 0.25 µM (legend 2.5 μM)
Protocol: PAO1 biofilms were established on MBEC pegs for 24 h and then treated either with 0.625 μg/ml tobramycin, 0.25 μg/ml piperacillin/tazobactam (Pip/Tazo), 2.5 μM AcpP-RXR(3′), 2.5 μM RpsJ-RXR(3′) or with a combination of PPMO and antibiotic at 24, 32, and 40 h. […]
The viability and metabolic state of biofilm-associated cells were determined using resazurin dye ([17]). […] This time point was previously optimized based on the time needed for the untreated control cells to reach maximum fluorescence. The plates were read at an excitation of 530 nm and emission of 590 nm on a Synergy BioTek plate reader. Viable CFU from the biofilms were also determined by rinsing MBEC pegs in PBS three times to remove planktonic bacteria, followed by cutting the peg off the base with a hot scalpel and placing it in a 14 ml Falcon tube containing 1 ml PBS. […]

P. aeruginosa PA103 = experiment: Acute pneumonia mouse model, intraperitoneal PPMO alone or with tobramycin, survival; format: in vivo, Pseudomonas aeruginosa in BALB/c mice; conditions: intraperitoneal at 6, 12 and 24 h; Kaplan-Meier
Protocol: Mice were treated by intraperitoneal injection of RpsJ-RXR(3′) (15 mg/kg), tobramycin (15 mg/kg), scrambled PPMO (15 mg/kg) alone or in combination (scrambled PPMO plus tobramycin or RpsJ PPMO plus tobramycin) at 6, 12, and 24 h for a total of three treatments after intratracheal infection with a […] dose of P. aeruginosa PA103. Mice were monitored for up to 4 days postinfection. […] Mice treated with RpsJ-RXR(3′) or tobramycin had 50 to 60% increased survival compared to PBS or scrambled control, respectively.
FIG 4 PPMOs work in concert with traditional antibiotics to improve survival in acute lung model of infection. […] Mice were monitored for 4 days postinfection. Results are represented by Kaplan-Meier survival curves and were analyzed by log rank test (log rank test, RpsJ versus PBS, P < 0.001; RpsJ versus Scr, P < 0.05; RpsJ versus RpsJ plus tobramycin, P < 0.05; Scr versus Scr plus tobramycin, P = 0.1778. Median survival: PBS, 36 h; Scr, 48 h; RpsJ, tobramycin, and combination treatments, undefined). […]
Mice were infected as described above and treated either intraperitoneally or intranasally with 15 mg/kg/treatment of PPMO or corresponding controls as indicated. Animals were treated at 6, 12, or 24 h postinfection, with a total of three doses and were monitored for survival up to 4 days postinfection.

| Compound | survival at day 4 [1] | Median survival [1] | MIC of strain MB447 against antibiotic (P. aeruginosa MB447) | reduction of established biofilm mass compared to untreated [2] | decrease of biofilm cell viability compared to no treatment [3] | Median survival (P. aeruginosa PA103) |
| --- | --- | --- | --- | --- | --- | --- |
| C[C@@H](O)[C@H]1C(=O)N2C(C(=O)O)=C(S[C@@H]3CN[C@H](C(=O)N(C)C)C3)[C@H](C)[C@H]12 [meropenem] | 0% | 34 h | 32 µM |  |  |  |
| piperacillin-tazobactam |  |  |  | no impact on established biofilm |  |  |
| NC[C@H]1O[C@H](O[C@H]2[C@H](O)[C@@H](O[C@H]3O[C@H](CO)[C@@H](O)[C@H](N)[C@H]3O)[C@H](N)C[C@@H]2N)[C@H](N)C[C@@H]1O [tobramycin] | 67% | undefined | 8 µM | 50% | 50% | undefined |
